# From patent US20260166039A1 (SCHRÖDINGER, INC., priority 2022, published 2026)
# pIC50: −log10 of the molar value.
# Molecular target: T1, Wee1 kinase domain (Homo sapiens, UniProt P30291)
# T1 construct: Wee1 kinase domain was purchased from Carna (catalog #05-177); purchased Carna 05-177
# Test: Wee1 Kinase Biochemical Assay (ADP-Glo)
# Conditions: Wee1 kinase domain, 15 uM ATP, ADP-Glo
# In short: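 The reaction mix held 1 nM Wee1 kinase domain, 15 uM ATP and 2 ng/mL Poly(Lys,Tyr 4:1) substrate and was left for 4 hours at 25 °C. ADP production was then measured with ADP-Glo, and percent inhibition was derived relative to DMSO and a saturating Wee1 inhibitor.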
# T1 sequence (P30291 299-569 limits assumed): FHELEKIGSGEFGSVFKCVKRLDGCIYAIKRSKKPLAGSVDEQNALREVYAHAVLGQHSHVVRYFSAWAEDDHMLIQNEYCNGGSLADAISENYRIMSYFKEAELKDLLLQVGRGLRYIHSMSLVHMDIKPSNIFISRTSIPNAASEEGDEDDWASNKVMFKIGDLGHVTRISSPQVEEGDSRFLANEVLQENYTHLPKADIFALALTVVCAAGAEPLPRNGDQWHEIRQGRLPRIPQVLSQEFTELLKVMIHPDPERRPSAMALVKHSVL
row,Structure (SMILES),pIC50
1,"CNCc1cccc(N2c3nc(Nc4ccc(C5CCOCC5)nc4)ncc3[C@]3(C)COC(C)(C)C[C@H]23)n1 (single isomer, unassigned) [Example 55]",≤ 6.00
2,"CNCc1cccc(N2c3nc(Nc4ccc([C@@]5(C)CCN(C)C5=O)cc4)ncc3[C@]3(C)COC(C)(C)C[C@H]23)n1 (single isomer, unassigned) [Example 79]",6.00 to 7.00
3,"CN1CCC(n2cc(Nc3ncc4c(n3)N(c3cccc(C(C)(C)O)n3)[C@H]3CC(C)(C)OC[C@@]43C)cn2)CC1 (single isomer, unassigned) [Example 12]",6.00 to 7.00
4,"CNCc1cccc(N2c3nc(Nc4cnn(C(C)(C)C)c4)ncc3[C@]3(C)COC(C)(C)C[C@H]23)n1 (single isomer, unassigned) [Example 47]",6.00 to 7.00
5,"CNCc1cccc(N2c3nc(Nc4ccc([C@H]5CCC(=O)N5C)nc4)ncc3[C@@]3(C)COC(C)(C)C[C@@H]23)n1 (single isomer, unassigned) [Example 98]",> 8.00
6,"CNCc1cccc(N2c3nc(Nc4ccc([C@H]5CCCO5)cc4)ncc3[C@]3(C)COC(C)(C)C[C@H]23)n1 (single isomer, unassigned) [Example 58]",≤ 6.00
7,"CN1C[C@@H]2C[C@H]1CN2c1ccc(Nc2ncc3c(n2)N(c2cccc(N=S(C)(C)=O)n2)[C@H]2CC(C)(C)OC[C@@]32C)cc1 (single isomer, unassigned) [Example 123]",6.00 to 7.00
8,"Cc1cc(Nc2ncc3c(n2)N(c2cccc(N4C(=O)OC[C@@H]4C)n2)[C@H]2CC(C)(C)OC[C@@]32C)ccc1N1CCN(C)CC1 (single isomer, unassigned) [Example 236]",7.00 to 8.00
9,"C[C@H]1COC(=O)N1c1cccc(N2c3nc(Nc4ccc(N5C[C@H]6C[C@@H]5CN6)cc4)ncc3[C@]3(C)COC(C)(C)C[C@H]23)n1 (single isomer, unassigned) [Example 276]",7.00 to 8.00
10,"CNCc1cccc(N2c3nc(NC45CC(C4)C5)ncc3[C@@]3(C)COC(C)(C)C[C@@H]23)n1 [Example 89, (4bR,8aR)-N-(bicyclo[1.1.1]pentan-1-yl)-4b,7,7-trimethyl-9-(6-((methylamino)methyl)pyridin-2-yl)-4b,5,7,8,8a,9-hexahydropyrano[3′,4′:4,5]pyrrolo[2,3-d]pyrimidin-2-amine]",≤ 6.00
11,"CNCc1cccc(N2c3nc(Nc4ccc(C(=O)N5CCOCC5)cc4)ncc3[C@]3(C)COC(C)(C)C[C@H]23)n1 (single isomer, unassigned) [Example 23]",6.00 to 7.00
12,"CN1CCC[C@H]1c1ccc(Nc2ncc3c(n2)N(c2cccc(N=S(C)(C)=O)n2)[C@H]2CC(C)(C)OC[C@@]32C)cc1 (single isomer, unassigned) [Example 125]",7.00 to 8.00
13,"CNCc1cccc(N2c3nc(Nc4ccc([C@]5(C)CCN(C)C5=O)cc4)ncc3[C@]3(C)COC(C)(C)C[C@H]23)n1 (single isomer, unassigned) [Example 77]",6.00 to 7.00
14,"CN1CCC[C@@H]1c1ccc(Nc2ncc3c(n2)N(c2cccc(N=S(C)(C)=O)n2)[C@H]2CC(C)(C)OC[C@@]32C)cn1 (single isomer, unassigned) [Example 209]",7.00 to 8.00
15,"C[C@H]1COC(=O)N1c1cccc(N2c3nc(Nc4ccc(N5CCN(C)CC5=O)cc4)ncc3[C@]3(C)COC(C)(C)C[C@H]23)n1 (single isomer, unassigned) [Example 270]",7.00 to 8.00

# The remaining lines, values ahead:
row,pIC50,Structure (SMILES)
1,7.00 to 8.00,"Cc1cc(Nc2ncc3c(n2)N(c2cccc(N4C(=O)OC[C@@H]4C)n2)[C@H]2CC(C)(C)OC[C@@]32C)ccc1N1C[C@H]2C[C@@H]1CN2C (single isomer, unassigned) [Example 288]"
2,7.00 to 8.00,"C[C@H]1COC(=O)N1c1cccc(N2c3nc(Nc4ccc(N5C[C@H]6C[C@@H](C5)N6C)cc4)ncc3[C@]3(C)COC(C)(C)C[C@H]23)n1 (single isomer, unassigned) [Example 353]"
3,7.00 to 8.00,"C[C@H]1COC(=O)N1c1cccc(N2c3nc(Nc4ccc(O[C@H]5CCNC5)nc4)ncc3[C@]3(C)COC(C)(C)C[C@H]23)n1 (single isomer, unassigned) [Example 284]"

# Same assay, conditions: class symbols; 1 nM Wee1 enzyme, 15 uM ATP, 4 hours at 25° C.
row,pIC50,Structure (SMILES)
1,> 8.00,"CN1CCN(c2ccc(Nc3ncc4c(n3)N(c3cccc(C(F)F)n3)[C@@H]3CC(C)(C)OC[C@]43C)cc2)CC1 (single isomer, unassigned) [Example 807]"
2,7.00 to 8.00,"CN1C[C@H]2C[C@@H]1CN2c1ccc(Nc2ncc3c(n2)N(c2cccc(C(C)(C)O)n2)[C@H]2CC(C)(C)OC[C@@]32C)cc1Cl (single isomer, unassigned) [Example 434]"
3,> 8.00,"CN1C[C@@H]2C[C@H]1CN2c1ccc(Nc2ncc3c(n2)N(c2ccccn2)[C@@H]2CC(C)(C)OC[C@]32C)cc1 [Example 800, (4bR,8aR)-4b,7,7-trimethyl-N-(4-((1S,4S)-5-methyl-2,5-diazabicyclo[2.2.1]heptan-2-yl)phenyl)-9-(pyridin-2-yl)-4b,5,7,8,8a,9-hexahydropyrano[3′,4′:4,5]pyrrolo[2,3-d]pyrimidin-2-amine]"
4,7.00 to 8.00,"CC1(C)C[C@@H]2N(c3cccc(N4CCOC4=O)n3)c3nc(Nc4ccc([C@@H]5CNCC5(F)F)cc4)ncc3[C@]2(C)CO1 [Example 681, 3-(6-((4bS,8aS)-2-((4-((R)-4,4-difluoropyrrolidin-3-yl)phenyl)amino)-4b,7,7-trimethyl-4b,7,8,8a-tetrahydropyrano[3′,4′:4,5]pyrrolo[2,3-d]pyrimidin-9(5H)-yl)pyridin-2-yl)oxazolidin-2-one]"
5,6.00 to 7.00,"CNCc1cccc(N2c3nc(Nc4ccc(N5[C@@H]6COC[C@H]5C6)cc4)ncc3[C@]3(C)COC(C)(C)C[C@H]23)n1 (single isomer, unassigned) [Example 480]"
6,7.00 to 8.00,"CN1C[C@H]2C[C@@H]1CN2c1ccc(Nc2ncc3c(n2)N(c2cccc(N4CCOC4=O)n2)[C@H]2CC(C)(C)OC[C@@]32C)cc1F [Example 669, 3-(6-((4bS,8aS)-2-((3-fluoro-4-((1R,4R)-5-methyl-2,5-diazabicyclo[2.2.1]heptan-2-yl)phenyl)amino)-4b,7,7-trimethyl-4b,7,8,8a-tetrahydropyrano[3′,4′:4,5]pyrrolo[2,3-d]pyrimidin-9(5H)-yl)pyridin-2-yl)oxazolidin-2-one]"
7,6.00 to 7.00,"CN1C[C@H]2C[C@@H]1CN2c1ccc(Nc2ncc3c(n2)N(c2cccc(C(C)(C)O)n2)[C@H]2CC(C)(C)OC[C@@]32C)cc1 (single isomer, unassigned) [Example 414]"
8,7.00 to 8.00,"CN1[C@@H]2C[C@H]1CN(c1ccc(Nc3ncc4c(n3)N(c3cccc(N5CCOC5=O)n3)[C@H]3CC(C)(C)OC[C@@]43C)cc1)C2 [Example 701, 3-(6-((4bS,8aS)-4b,7,7-trimethyl-2-((4-((1R,5S)-6-methyl-3,6-diazabicyclo[3.1.1]heptan-3-yl)phenyl)amino)-4b,7,8,8a-tetrahydropyrano[3′,4′:4,5]pyrrolo[2,3-d]pyrimidin-9(5H)-yl)pyridin-2-yl)oxazolidin-2-one]"
9,7.00 to 8.00,"CN[C@@H](C)c1cc(C)nc(N2c3nc(Nc4ccc(N5CCOCC5)cc4)ncc3[C@@]3(C)COC(C)(C)C[C@@H]23)c1 (single isomer, unassigned) [Example 560]"
10,7.00 to 8.00,"CN1CC(c2ccc(Nc3ncc4c(n3)N(c3cccc(N5CCCC5=O)n3)[C@H]3CC(C)(C)OC[C@@]43C)cc2)C1 [Example 697, 1-(6-((4bS,8aS)-4b,7,7-trimethyl-2-((4-(1-methylazetidin-3-yl)phenyl)amino)-4b,7,8,8a-tetrahydropyrano[3′,4′:4,5]pyrrolo[2,3-d]pyrimidin-9(5H)-yl)pyridin-2-yl)pyrrolidin-2-one]"
11,6.00 to 7.00,"CN1CCN(c2ccc(Nc3ncc4c(n3)N(c3cccc(N5CCOC5=O)n3)[C@H]3CC(C)(C)OC[C@@]43C)cc2)CC1 (single isomer, unassigned) [Example 576]"
12,≤ 6.00,"CC1(C)C[C@@H]2N(c3ccc4c(n3)CCNC4)c3nc(Nc4ccc(N5CCOCC5)cc4)ncc3[C@]2(C)CO1 (single isomer, unassigned) [Example 561]"
13,6.00 to 7.00,"CN[C@@H](C)c1cccc(N2c3nc(Nc4ccc(N5C[C@@H]6C[C@H]5CO6)cc4)ncc3[C@]3(C)COC(C)(C)C[C@H]23)n1 (single isomer, unassigned) [Example 580]"
14,6.00 to 7.00,"CNCc1cccc(N2c3nc(Nc4cccc(N5CCOCC5)c4)ncc3[C@]3(C)COC(C)(C)C[C@H]23)n1 (single isomer, unassigned) [Example 469]"
15,> 8.00,"CC1(C)C[C@H]2N(c3cccc(N=S(C)(C)=O)n3)c3nc(Nc4ccn(C5CCC5)c(=O)c4)ncc3[C@@]2(C)CO1 (single isomer, unassigned) [Example 802]"
16,> 8.00,"CN1C[C@H]2C[C@@H]1CN2c1ccc(Nc2ncc3c(n2)N(c2cccc(N4C(=O)CCC4(C)C)n2)[C@@H]2CC(C)(C)OC[C@]32C)cc1 [Example 797, 5,5-dimethyl-1-(6-((4bR,8aR)-4b,7,7-trimethyl-2-((4-((1R,4R)-5-methyl-2,5-diazabicyclo[2.2.1]heptan-2-yl)phenyl)amino)-4b,7,8,8a-tetrahydropyrano[3′,4′:4,5]pyrrolo[2,3-d]pyrimidin-9(5H)-yl)pyridin-2-yl)pyrrolidin-2-one]"
17,6.00 to 7.00,"CN1[C@@H]2C[C@H]1CN(c1ccc(Nc3ncc4c(n3)N(c3cccc(C(C)(C)O)n3)[C@H]3CC(C)(C)OC[C@@]43C)cc1)C2 (single isomer, unassigned) [Example 442]"
18,7.00 to 8.00,"CC1(C)C[C@@H]2N(c3cccc(N4CCOC4=O)n3)c3nc(Nc4ccc([C@H]5CCNC5)cc4)ncc3[C@]2(C)CO1 [Example 609, 3-(6-((4bS,8aS)-4b,7,7-trimethyl-2-((4-((R)-pyrrolidin-3-yl)phenyl)amino)-4b,7,8,8a-tetrahydropyrano[3′,4′:4,5]pyrrolo[2,3-d]pyrimidin-9(5H)-yl)pyridin-2-yl)oxazolidin-2-one]"
19,6.00 to 7.00,"CNCc1cccc(N2c3nc(Nc4cnn(C)c4)ncc3[C@]3(C)COC(C)(C)C[C@H]23)n1 (single isomer, unassigned) [Example 471]"
